Results reported in ChEMBL document CHEMBL1944621, “Design, synthesis, and biological evaluation of novel (1-thioxo-1,2,3,4-tetrahydro-β-carbolin-9-yl)acetic acids as selective inhibitors for AKR1B1” (Bioorg Med Chem, 2012).

Key:
[1] = target: Aldo-keto reductase family 1 member B10 (Homo sapiens, UniProt O60218); experiment: Inhibition of recombinant N-His6-tagged AKR1B10 expressed in Escherichia coli BL21 cells using pyridine-3-aldehyde as substrate by spectrophotometry
[2] = target: T1, Aldo-keto reductase family 1 member B1 (Homo sapiens, UniProt P15121); experiment: Inhibition of human recombinant AKR1B1 expressed in Escherichia coli BL21 cells using pyridine-3-aldehyde as substrate by spectrophotometry
[3] = target: T2, Aldo-keto reductase family 1 member A1 (Homo sapiens, UniProt P14550); experiment: Inhibition of human recombinant AKR1A1 expressed in Escherichia coli BL21 cells using D-glucuronate as substrate by spectrophotometry
T2 sequence (P14550 whole entry): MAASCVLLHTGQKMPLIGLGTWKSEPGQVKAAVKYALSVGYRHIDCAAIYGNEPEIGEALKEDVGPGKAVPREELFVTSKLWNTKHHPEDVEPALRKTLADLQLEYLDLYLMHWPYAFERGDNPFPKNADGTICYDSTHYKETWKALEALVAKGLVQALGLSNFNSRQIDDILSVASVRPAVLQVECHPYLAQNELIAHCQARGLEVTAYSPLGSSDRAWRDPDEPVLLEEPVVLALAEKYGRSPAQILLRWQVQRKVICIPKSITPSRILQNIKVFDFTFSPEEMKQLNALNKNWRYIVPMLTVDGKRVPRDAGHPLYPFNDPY

[4] = target: T1, Aldo-keto reductase family 1 member B1
Description: Noncompetitive inhibition of human recombinant AKR1B1 using pyridine-3-aldehyde as substrate by Lineweaver-Burk plot analysis

Aldo-keto reductase family 1 member B10, sequence (O60218 whole entry): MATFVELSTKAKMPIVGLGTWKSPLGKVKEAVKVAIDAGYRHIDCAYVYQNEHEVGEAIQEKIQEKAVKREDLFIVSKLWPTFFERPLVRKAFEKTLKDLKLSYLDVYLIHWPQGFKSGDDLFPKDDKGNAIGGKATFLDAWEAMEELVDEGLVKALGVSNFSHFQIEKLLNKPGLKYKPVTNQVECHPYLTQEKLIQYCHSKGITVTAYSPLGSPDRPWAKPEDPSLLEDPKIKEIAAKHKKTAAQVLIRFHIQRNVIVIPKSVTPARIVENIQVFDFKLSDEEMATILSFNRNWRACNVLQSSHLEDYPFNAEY

| Structure (SMILES) | IC50 [1] [nM] | IC50 [2] [nM] | IC50 [3] [nM] | Kii [4] [nM] | Kis [4] [nM] |
| --- | --- | --- | --- | --- | --- |
| O=C(O)Cn1c2c(c3ccccc31)CCN(Cc1ccc(Br)cc1F)C2=S | 680 | 4200 |  |  |  |
| O=C(O)Cn1c2c(c3ccccc31)CCN(Cc1ccc(Br)cc1)C2=S | 850 | 5900 | 14000 |  |  |
| COc1ccc2c(c1)c1c(n2CC(=O)O)C(=S)N(Cc2ccccc2)CC1 | 2900 | 150 | 12000 | 180 | 79 |
| O=C(O)Cn1c2c(c3cc(Cl)ccc31)CCN(Cc1ccccc1)C2=S | 1400 | 350 | 15000 |  |  |
| CC(C)c1ccc2c(c1)c1c(n2CC(=O)O)C(=S)N(Cc2ccccc2)CC1 | 3400 | 200 | 16000 |  |  |
| O=C(O)Cn1c2c(c3c(F)cc(F)cc31)CCN(Cc1ccccc1)C2=S | 480 | 1300 | 4700 |  |  |
| O=C(O)Cn1c2c(c3c(F)cc(F)cc31)CCN(CCc1ccccc1)C2=S | 400 | 1800 |  |  |  |
| O=C(O)Cn1c2c(c3cc(F)ccc31)CCN(Cc1ccccc1)C2=S | 3300 | 230 | 19000 |  |  |
| O=C(O)Cn1c2c(c3cc(F)ccc31)CCN(Cc1ccc(C(F)(F)F)cc1)C2=S | 1600 | 10000 |  |  |  |

The remaining compounds from weak to strong by IC50 [1], led by results:

| IC50 [1] [nM] | IC50 [2] [nM] | IC50 [3] [nM] | Kii [4] [nM] | Kis [4] [nM] | Structure (SMILES) |
| --- | --- | --- | --- | --- | --- |
| 40000 | 170 | 53000 | 220 | 55 | O=C(O)Cn1c2c(c3cc(C(=O)O)ccc31)CCN(Cc1ccccc1)C2=S |
| 21000 | 31000 |  |  |  | O=C(O)Cn1c2c(c3ccccc31)CCN(c1ccccc1)C2=S |
| 6100 | 190 | 10000 |  |  | O=C(O)Cn1c2c(c3c(Cl)cc(Cl)cc31)CCN(Cc1ccccc1)C2=S |
| 5100 | 220 | 9500 |  |  | O=C(O)Cn1c2c(c3ccccc31)CCN(Cc1ccccc1)C2=S |
| 3800 | 14000 |  |  |  | O=C(O)Cn1c2c(c3ccccc31)CCN(Cc1ccc(C(F)(F)F)cc1)C2=S |
| 1900 | 200 |  |  |  | O=C(O)Cn1c2c(c3cc(O)ccc31)CCN(Cc1ccccc1)C2=S |
| 1400 | 320 | 11000 |  |  | O=C(O)Cn1c2c(c3cc(Br)ccc31)CCN(Cc1ccccc1)C2=S |
| 1400 | 190 | 11000 |  |  | O=C(O)Cn1c2c(c3cc(I)ccc31)CCN(Cc1ccccc1)C2=S |
| 1400 | 240 | 21000 |  |  | O=C(O)Cn1c2c(c3ccc(Cl)cc31)CCN(Cc1ccccc1)C2=S |
| 280 | 1700 |  |  |  | O=C(O)Cn1c2c(c3cc(F)ccc31)CCN(Cc1ccc(Br)cc1F)C2=S |
